Drawing on PubChem BioAssay (NCI), this text covers TGI and GI50 for ten compounds.

Test systems include NCI-H460 lung; CAKI-1 renal; OVCAR-3 ovarian; UACC-62 melanoma; CCRF-CEM leukemia; HOP-92 NSCLC; UACC-257 melanoma; TK-10 renal; SF-539 CNS; RPMI-8226 leukemia.
Assay in all cases: NCI tumour cell line growth inhibition, 48 h

Values joined by “and” are separate entries in the source; they are usually repeats but may differ in a detail not shown here. Identical values can stand only once.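 96-well plates; 48 h exposure; 5 concentrations. Endpoints by linear interpolation between flanking doses. Not reached: highest tested concentration assigned. GI50 marks 50% less growth. TGI: concentration producing complete growth inhibition.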

With `COC(Cc1cc(C(O)(c2ccc(C(C)(C)C)cc2)c2cc(CC(OC)(c3cc(C(OC)(c4ccc(C(C)(C)C)cc4)c4ccc(C(C)(C)C)cc4)c(C)cc3C)c3cc(C(OC)(c4ccc(C(C)(C)C)cc4)c4ccc(C(C)(C)C)cc4)c(C)cc3C)c(C)cc2C)c(C)cc1C)(c1cc(C(OC)(c2ccc(C(C)(C)C)cc2)c2ccc(C(C)(C)C)cc2)c(C)cc1C)c1cc(C(OC)(c2ccc(C(C)(C)C)cc2)c2ccc(C(C)(C)C)cc2)c(C)cc1C`, the TGI in the test with NCI-H460 lung, in the test with CAKI-1 renal, with OVCAR-3 ovarian, with UACC-62 melanoma, in the test on CCRF-CEM leukemia and in the test with HOP-92 NSCLC was > 75 µM throughout. For the same compound, the TGI in the test on UACC-257 melanoma, in the test with TK-10 renal and in the test on SF-539 CNS was > 75 µM in each case.

As for `CC(C)(C)c1ccc(NS(=O)(=O)c2ccc(N)cc2)cc1`, the TGI was > 100 µM in the test with NCI-H460 lung; 30.6 µM in the test with RPMI-8226 leukemia; 99.4 µM in the test with CAKI-1 renal; 12.9 µM with OVCAR-3 ovarian; 30.3 µM with UACC-62 melanoma; 40.2 µM in the test on CCRF-CEM leukemia. In addition, the results for the TGI in the test with UACC-257 melanoma, with TK-10 renal and in the test with SF-539 CNS were > 100 µM, > 100 µM and 41.7 µM, respectively.

Take `Cc1cc(C)n(CN(CCCCO)Cn2nc(C)cc2C)n1`: the TGI in the test with NCI-H460 lung is > 100 µM; in the test with RPMI-8226 leukemia it was 20.3 µM; with CAKI-1 renal, 99.5 µM; in the test on OVCAR-3 ovarian, 58 µM; with UACC-62 melanoma, 36.9 µM; in the test on CCRF-CEM leukemia it was 1.74 µM. Further, the TGI is 81 µM in the test on HOP-92 NSCLC, 80 µM in the test with UACC-257 melanoma, > 100 µM in the test on TK-10 renal and 36.2 µM in the test with SF-539 CNS.

As for `COc1ccc2c(c1)C(=O)c1c-2n(CCCN=[N+]=[N-])c(=O)c2cc([N+](=O)[O-])ccc12`, the TGI in the test with NCI-H460 lung is 0.0469 µM; in the test with RPMI-8226 leukemia, 0.264 µM and 1.35 µM; in the test with CAKI-1 renal it was 0.00531 µM; in the test on UACC-62 melanoma it was 0.991 µM; in the test on CCRF-CEM leukemia, 0.0275 µM and 0.0272 µM; in the test on UACC-257 melanoma, > 100 µM. The compound also returned a TGI in the test on TK-10 renal of 37.3 µM. Also, the GI50 is 0.0128 µM and 0.0101 µM in the test on RPMI-8226 leukemia; 0.0018 µM with CAKI-1 renal; 0.225 µM in the test with UACC-62 melanoma; < 0.001 µM with CCRF-CEM leukemia; 0.0646 µM with HOP-92 NSCLC; 15.2 µM with TK-10 renal.

With `O=S(=O)(O)c1ccc(N=Nc2ccc(N=Nc3c(O)ccc4ccc(S(=O)(=O)O)cc34)cc2)cc1`, the TGI in the test with NCI-H460 lung, in the test with RPMI-8226 leukemia, in the test on CAKI-1 renal, in the test with OVCAR-3 ovarian, in the test with UACC-62 melanoma and in the test with CCRF-CEM leukemia was > 100 µM in each case. The TGI with HOP-92 NSCLC, in the test on UACC-257 melanoma, in the test with TK-10 renal and in the test on SF-539 CNS was > 100 µM each time.

For `O=C(N/N=C\c1ccc(N(CCCl)CCCl)cc1)c1cccnc1`, the GI50 was 3.83 µM in the test with NCI-H460 lung; 44.8 µM with RPMI-8226 leukemia; 8.53 µM with CAKI-1 renal; 30.5 µM with OVCAR-3 ovarian; 9.1 µM with UACC-62 melanoma; 5.91 µM in the test with CCRF-CEM leukemia. Also, the GI50 in the test on HOP-92 NSCLC is 30.6 µM; in the test on UACC-257 melanoma, 60.6 µM; with TK-10 renal, 33.4 µM; in the test on SF-539 CNS, 29.3 µM. Besides, the TGI with NCI-H460 lung, in the test on RPMI-8226 leukemia, with CAKI-1 renal, with OVCAR-3 ovarian, in the test with UACC-62 melanoma and in the test on CCRF-CEM leukemia was > 100 µM throughout. For the same compound, the TGI in the test on HOP-92 NSCLC, in the test with UACC-257 melanoma, in the test on TK-10 renal and in the test on SF-539 CNS was > 100 µM throughout.

`CCOC(=O)NC(=O)c1cn(CCN(CCO)C(=O)NCCCCCCNC(=O)N(CCO)CCn2cc(C(=O)NC(=O)OCC)c(=O)[nH]c2=O)c(=O)[nH]c1=O`: the TGI with NCI-H460 lung, in the test on RPMI-8226 leukemia, in the test on CAKI-1 renal, in the test on OVCAR-3 ovarian, in the test with UACC-62 melanoma and in the test with CCRF-CEM leukemia was > 100 µM each time. The TGI with HOP-92 NSCLC, in the test on UACC-257 melanoma and in the test on SF-539 CNS was > 100 µM each time.

Regarding `CCCC[n+]1ccn(-c2nc3ccccc3n2C)c1`, the TGI in the test on NCI-H460 lung, in the test on RPMI-8226 leukemia, in the test on CAKI-1 renal, in the test on OVCAR-3 ovarian, in the test with UACC-62 melanoma and with CCRF-CEM leukemia was > 100 µM throughout. The TGI in the test on UACC-257 melanoma, in the test with TK-10 renal and with SF-539 CNS was > 100 µM in each case.

For the compound `C/C=C(\C)C(=O)OC1C2C(C)=CC(=O)C(O)C2(C)C2C3(O)OCC24C1OC(=O)C(OC(C)=O)C4C(C)C3O` (configuration not stated), the TGI in the test on NCI-H460 lung stood at 0.038 µM; with RPMI-8226 leukemia, 0.0377 µM; in the test on CAKI-1 renal, 0.674 µM; in the test on OVCAR-3 ovarian, 0.0496 µM; in the test with UACC-62 melanoma, 0.0555 µM; in the test on CCRF-CEM leukemia it was 0.244 µM. The TGI with HOP-92 NSCLC amounted to 0.0508 µM; in the test on UACC-257 melanoma, 0.0496 µM.

Take `CC1=C/C(=N\NS(=O)(=O)c2ccc([N+](=O)[O-])cc2)CC(C)(C)C1`: the TGI with NCI-H460 lung, in the test with RPMI-8226 leukemia, in the test with CAKI-1 renal, in the test on OVCAR-3 ovarian, with UACC-62 melanoma and with CCRF-CEM leukemia was > 100 µM each time. The TGI in the test on HOP-92 NSCLC was 75.6 µM; with UACC-257 melanoma, > 100 µM; with TK-10 renal, > 100 µM; in the test on SF-539 CNS it was > 100 µM.
